# Values quoted from earlier work in patent publication US20140017301A1, “DRUG-FREE COMPOSITIONS AND METHODS FOR DIMINISHING PERIPHERAL INFLAMMATION AND PAIN” (priority 2011, published 2014).
# Conditions: excipients of Table 3
row,Compound,log P
1,"O=c1[nH]sc2ccccc12 [1,2-benzothiazol-3-one]",1.08
2,"CC1(C)C(=O)N(CO)C(=O)N1CO [1,3-Dimethylol-5,5-dimethylhydantoin]",0.6
3,"Cc1cc(O)c(C)c(C)c1O [2,3,5-trimethylbenzene-1,4-diol]",2.12
4,O=C(O)CNCO [2-(hydroxymethylamino)acetic adic],−2.2
5,"Cn1sccc1=O [2-methyl-1,2-thiazol-3-one]",−0.06
6,"CCCCOC(=O)c1ccc(O)cc1 [Butyl 4-hydroxybenzoate; butylparabene, Butyl 4-hydroxybenzoate]",3.07
7,"COc1ccc(O)c(C(C)(C)C)c1 [Butylated hydroxyanisole, BHA, Butylated hydroxyanisole]",3.13
8,CC(=O)C1C(=O)C=C(C)OC1=O (stereo not shown) [Dehydroacetic acid],−0.05
9,NC(N)=S [Thiourea],−0.96
10,Propanediol,−0.71
11,Tocopherol,9.76

# More lines, now with the values ahead:
row,log P,Compound
1,−0.57,"OCC(O)CS (stereo not shown) [3-sulfanylpropane-1,2-diol]"
2,4.81,"CCCCCCOc1cc(C)c(O)c(C)c1C [4-hexoxy-2,3,6-trimethylphenol, HTHQ, 4-hexoxy-2,3,6-trimethylphenol]"
3,0.44,"O=[N+]([O-])C1(Br)COCOC1 [5-Bromo-5-nitro-1,3-dioxane, bronidox, 5-Bromo-5-nitro-1,3-dioxane]"
4,3.21,"Cc1ccc(C(C)C)c(O)c1 [6-isopropyl-m-cresol; thymol, 6-isopropyl-m-cresol]"
5,0.87,"CC(=O)OC1CC(C)OC(C)O1 (stereo not shown) [(2,6-dimethyl-1,3-dioxan-4-yl) acetate]"
6,1.23,OCc1ccccc1 [Benzyl alcohol]
7,−3.2,"O=C1C(N(CO)C(=O)NCO)N(CO)C(=O)N1CO (stereo not shown) [Diazodinyl Urea (Germall II), Diazodinyl Urea]"
8,2.16,"CCOC(=O)c1ccc(O)cc1 [Ethyl 4-hydroxybenzoate; ethylparabene, Ethyl 4-hydroxybenzoate]"
9,1.72,"COC(=O)c1ccc(O)cc1 [Methyl 4-hydroxybenzoate; methylparabene, Methyl 4-hydroxybenzoate]"
10,1.26,OCCOc1ccccc1 [Phenoxyethanol]
11,1.61,OCCc1ccccc1 [Phenylethanol]
12,2.63,"CCCOC(=O)c1ccc(O)cc1 [Propyl 4-hydroxybenzoate; propylparabene, Propyl 4-hydroxybenzoate]"
13,1.38,C/C=C/C=C/C(=O)O [Sorbic acid]
14,3.67,Benzalkonium
